Results reported in the NIST ThermoML archive (doi:10.1021/je800017j).
Numbers after ± are expanded uncertainties.

Assay: xn = mol fraction of the nth substance listed
Conditions: Liquid, Vibrating tube method

C=CC [propene] + CC(C)O
Conditions | mass density [kg/m3]
300.11 K, 966.7 kPa, x1 = 0.5201 | 644.49 ± 0.68
300.11 K, 1373.3 kPa, x1 = 0.5201 | 645.21 ± 0.68
300.11 K, 1835.6 kPa, x1 = 0.5201 | 645.98 ± 0.68
300.11 K, 2340.9 kPa, x1 = 0.5201 | 646.83 ± 0.68
300.11 K, 2812.4 kPa, x1 = 0.5201 | 647.62 ± 0.69
300.11 K, 3330.1 kPa, x1 = 0.5201 | 648.49 ± 0.69
300.11 K, 3817.5 kPa, x1 = 0.5201 | 649.27 ± 0.69
300.11 K, 4386.1 kPa, x1 = 0.5201 | 650.18 ± 0.69
300.11 K, 4873.7 kPa, x1 = 0.5201 | 650.95 ± 0.69
300.11 K, 5375.2 kPa, x1 = 0.5201 | 651.72 ± 0.7
300.11 K, 5888.8 kPa, x1 = 0.5201 | 652.52 ± 0.7
300.11 K, 6442 kPa, x1 = 0.5201 | 653.35 ± 0.7
300.11 K, 6942.8 kPa, x1 = 0.5201 | 654.09 ± 0.71
300.11 K, 7498.2 kPa, x1 = 0.5201 | 654.9 ± 0.71
300.11 K, 8104.7 kPa, x1 = 0.5201 | 655.77 ± 0.71
300.11 K, 8671.8 kPa, x1 = 0.5201 | 656.58 ± 0.71
300.11 K, 9226.7 kPa, x1 = 0.5201 | 657.35 ± 0.72
300.11 K, 9787 kPa, x1 = 0.5201 | 658.16 ± 0.72
300.12 K, 1068.5 kPa, x1 = 0.6478 | 608.06 ± 0.65
300.12 K, 1486.5 kPa, x1 = 0.6478 | 608.93 ± 0.65
300.12 K, 1740.6 kPa, x1 = 0.6478 | 609.48 ± 0.65
300.12 K, 2123.8 kPa, x1 = 0.6478 | 610.19 ± 0.65
300.12 K, 2620 kPa, x1 = 0.6478 | 611.17 ± 0.66
300.12 K, 2986.8 kPa, x1 = 0.6478 | 611.92 ± 0.66
300.12 K, 3495.3 kPa, x1 = 0.6478 | 612.85 ± 0.66
300.12 K, 3829 kPa, x1 = 0.6478 | 613.59 ± 0.66
300.12 K, 4193.5 kPa, x1 = 0.6478 | 614.26 ± 0.66
300.12 K, 4542.8 kPa, x1 = 0.6478 | 614.93 ± 0.67
300.12 K, 4905.4 kPa, x1 = 0.6478 | 615.61 ± 0.67
300.12 K, 5263.7 kPa, x1 = 0.6478 | 616.27 ± 0.67
300.12 K, 5634.1 kPa, x1 = 0.6478 | 616.94 ± 0.67
300.12 K, 6011.3 kPa, x1 = 0.6478 | 617.61 ± 0.68
300.12 K, 6395.3 kPa, x1 = 0.6478 | 618.28 ± 0.68
300.12 K, 6788.6 kPa, x1 = 0.6478 | 618.96 ± 0.68
300.12 K, 7165.4 kPa, x1 = 0.6478 | 619.61 ± 0.68
300.12 K, 7558.1 kPa, x1 = 0.6478 | 620.28 ± 0.68
300.12 K, 7960.1 kPa, x1 = 0.6478 | 620.96 ± 0.69
300.12 K, 8377.2 kPa, x1 = 0.6478 | 621.66 ± 0.69
300.12 K, 8785.5 kPa, x1 = 0.6478 | 622.34 ± 0.69
300.12 K, 9234.2 kPa, x1 = 0.6478 | 623.05 ± 0.7
300.12 K, 9682.1 kPa, x1 = 0.6478 | 623.79 ± 0.7
300.14 K, 529.4 kPa, x1 = 0.2011 | 731.63 ± 0.75
300.14 K, 1051.3 kPa, x1 = 0.2011 | 732.17 ± 0.75
300.14 K, 1483.6 kPa, x1 = 0.2011 | 732.72 ± 0.76
300.14 K, 1954.4 kPa, x1 = 0.2011 | 733.24 ± 0.76
300.14 K, 2384 kPa, x1 = 0.2011 | 733.72 ± 0.76
300.14 K, 2798.6 kPa, x1 = 0.2011 | 734.18 ± 0.76
300.14 K, 3273.1 kPa, x1 = 0.2011 | 734.68 ± 0.76
300.14 K, 3740.2 kPa, x1 = 0.2011 | 735.18 ± 0.76
300.14 K, 4186.3 kPa, x1 = 0.2011 | 735.68 ± 0.76
300.14 K, 4728.6 kPa, x1 = 0.2011 | 736.23 ± 0.76
300.14 K, 5235.6 kPa, x1 = 0.2011 | 736.78 ± 0.77
300.14 K, 5767.3 kPa, x1 = 0.2011 | 737.3 ± 0.77
300.14 K, 6274.7 kPa, x1 = 0.2011 | 737.83 ± 0.77
300.14 K, 6832.5 kPa, x1 = 0.2011 | 738.41 ± 0.77
300.14 K, 7291.5 kPa, x1 = 0.2011 | 738.89 ± 0.77
300.14 K, 7811.8 kPa, x1 = 0.2011 | 739.42 ± 0.77
300.14 K, 8296.6 kPa, x1 = 0.2011 | 739.9 ± 0.77
300.14 K, 8810.3 kPa, x1 = 0.2011 | 740.41 ± 0.78
300.14 K, 9337.7 kPa, x1 = 0.2011 | 740.91 ± 0.78
300.14 K, 9886.4 kPa, x1 = 0.2011 | 741.45 ± 0.78
325.05 K, 1613.1 kPa, x1 = 0.5201 | 613.41 ± 0.65
325.05 K, 1977.7 kPa, x1 = 0.5201 | 614.26 ± 0.66
325.05 K, 2359 kPa, x1 = 0.5201 | 615.15 ± 0.66
325.05 K, 2717.2 kPa, x1 = 0.5201 | 615.98 ± 0.66
325.05 K, 3167.8 kPa, x1 = 0.5201 | 616.93 ± 0.66
325.05 K, 3506.1 kPa, x1 = 0.5201 | 617.74 ± 0.67
325.05 K, 3888.8 kPa, x1 = 0.5201 | 618.59 ± 0.67
325.05 K, 4321.6 kPa, x1 = 0.5201 | 619.52 ± 0.67
325.05 K, 4676.7 kPa, x1 = 0.5201 | 620.29 ± 0.67
325.05 K, 5061.4 kPa, x1 = 0.5201 | 621.12 ± 0.67
325.05 K, 5471.8 kPa, x1 = 0.5201 | 621.94 ± 0.68
325.05 K, 5880.1 kPa, x1 = 0.5201 | 622.78 ± 0.68
325.05 K, 6293.6 kPa, x1 = 0.5201 | 623.65 ± 0.68
325.05 K, 6704.3 kPa, x1 = 0.5201 | 624.42 ± 0.68
325.05 K, 7171.7 kPa, x1 = 0.5201 | 625.34 ± 0.69
325.05 K, 7597.4 kPa, x1 = 0.5201 | 626.18 ± 0.69
325.05 K, 8037.5 kPa, x1 = 0.5201 | 627.02 ± 0.69
325.05 K, 8556.5 kPa, x1 = 0.5201 | 628.02 ± 0.7
325.05 K, 9078.1 kPa, x1 = 0.5201 | 628.97 ± 0.7
325.05 K, 9631.3 kPa, x1 = 0.5201 | 629.98 ± 0.7
325.09 K, 810.9 kPa, x1 = 0.2011 | 703.07 ± 0.73
325.09 K, 1218.9 kPa, x1 = 0.2011 | 703.59 ± 0.73
325.09 K, 1608.7 kPa, x1 = 0.2011 | 704.14 ± 0.73
325.09 K, 2001.8 kPa, x1 = 0.2011 | 704.7 ± 0.73
325.09 K, 2383.7 kPa, x1 = 0.2011 | 705.3 ± 0.73
325.09 K, 2827.6 kPa, x1 = 0.2011 | 705.86 ± 0.73
325.09 K, 3159.2 kPa, x1 = 0.2011 | 706.38 ± 0.74
325.09 K, 3707.9 kPa, x1 = 0.2011 | 707.07 ± 0.74
325.09 K, 4123.6 kPa, x1 = 0.2011 | 707.68 ± 0.74
325.09 K, 4528.5 kPa, x1 = 0.2011 | 708.19 ± 0.74
325.09 K, 4925.3 kPa, x1 = 0.2011 | 708.73 ± 0.74

Conditions | mass density [kg/m3]
300.11 K, x1 = 0.5201 | 644.42 ± 0.67
300.12 K, x1 = 0.6478 | 607.97 ± 0.64
300.14 K, x1 = 0.2011 | 731.63 ± 0.75
325.05 K, x1 = 0.5201 | 613.29 ± 0.65
